Our source for the IC50 values is patent publication US10479780B2, “Aminopyrazole derivatives” (Chugai Seiyaku Kabushiki Kaisha, priority 2015, dated 2019).

SMILES strings stand for the structures. Like-named read-outs stand apart in the source and are kept apart here.

Common to all, as to format: biochemical
The target of one assay is T1, human Lck enzyme (Homo sapiens, UniProt P06239).
T1 construct: purchased Carna Biosciences, Inc. 08-170
Description: Lck enzyme inhibitory activity (time-resolved fluorometry, biotinylated peptide phosphorylation). To be noted: read-out: LCK_IC50. A digest of the protocol: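 Readout pairs a europium cryptate-labelled anti-phosphotyrosine antibody with XL665-streptavidin, measured by time-resolved fluorescence. IC50 derived from percent inhibition against untreated controls.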

The target of a further assay is T2, human Yes1 enzyme (Homo sapiens, UniProt P07947).
T2 construct: made in house
The assay is described as follows: Yes1 enzyme inhibitory activity (time-resolved fluorometry, biotinylated peptide phosphorylation). To be noted: read-out: YES_IC50. A digest of the protocol:
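Inhibition was expressed against a compound-free control to give IC50, using TR-FRET read-out (Eu-cryptate anti-pTyr antibody, streptavidin-XL665).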

For a further assay, the target named is T3, human Src enzyme (Homo sapiens, UniProt P12931).
T3 construct: purchased Carna Biosciences, Inc. 08-173
Description: Src enzyme inhibitory activity (time-resolved fluorometry, biotinylated peptide phosphorylation). To be noted: read-out: SRC_IC50. The essentials: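 Compounds were tested for blocking tyrosine phosphorylation of a biotinylated peptide substrate by recombinant human Src. Phosphorylated product was quantified by time-resolved fluorometry using europium cryptate and XL665 conjugates, and IC50 was calculated against the compound-free control.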

Where [1] appears, read: biotinylated peptide phosphorylation.

T3 sequence (P12931 whole entry): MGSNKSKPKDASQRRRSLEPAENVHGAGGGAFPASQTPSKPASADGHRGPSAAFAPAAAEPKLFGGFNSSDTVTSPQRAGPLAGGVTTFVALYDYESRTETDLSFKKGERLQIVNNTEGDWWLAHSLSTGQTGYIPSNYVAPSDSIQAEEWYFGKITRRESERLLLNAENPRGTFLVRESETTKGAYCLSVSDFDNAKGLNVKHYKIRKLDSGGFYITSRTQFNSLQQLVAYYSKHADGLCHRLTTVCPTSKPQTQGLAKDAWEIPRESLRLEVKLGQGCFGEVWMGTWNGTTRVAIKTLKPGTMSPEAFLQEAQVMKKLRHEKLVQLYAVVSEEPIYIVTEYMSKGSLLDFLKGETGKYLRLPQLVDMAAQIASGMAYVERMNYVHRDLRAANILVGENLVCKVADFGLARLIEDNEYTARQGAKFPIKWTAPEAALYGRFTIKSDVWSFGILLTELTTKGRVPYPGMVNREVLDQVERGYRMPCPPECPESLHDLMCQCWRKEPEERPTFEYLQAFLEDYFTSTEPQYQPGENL
T2 sequence (P07947 whole entry): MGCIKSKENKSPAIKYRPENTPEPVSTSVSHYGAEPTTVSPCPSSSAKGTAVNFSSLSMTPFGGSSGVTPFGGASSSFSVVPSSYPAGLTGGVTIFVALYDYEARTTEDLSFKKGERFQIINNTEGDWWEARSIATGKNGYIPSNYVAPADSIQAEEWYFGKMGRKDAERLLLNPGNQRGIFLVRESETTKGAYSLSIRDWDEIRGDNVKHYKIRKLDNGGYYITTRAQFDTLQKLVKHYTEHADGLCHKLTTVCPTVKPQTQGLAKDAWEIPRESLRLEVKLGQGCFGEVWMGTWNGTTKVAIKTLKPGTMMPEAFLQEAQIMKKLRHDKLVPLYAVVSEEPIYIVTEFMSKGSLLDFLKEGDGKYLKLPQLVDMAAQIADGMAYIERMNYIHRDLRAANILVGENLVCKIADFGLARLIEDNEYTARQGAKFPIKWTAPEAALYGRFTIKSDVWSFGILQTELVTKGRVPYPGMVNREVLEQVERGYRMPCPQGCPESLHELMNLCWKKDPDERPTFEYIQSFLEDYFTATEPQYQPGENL
T1 sequence (P06239 whole entry): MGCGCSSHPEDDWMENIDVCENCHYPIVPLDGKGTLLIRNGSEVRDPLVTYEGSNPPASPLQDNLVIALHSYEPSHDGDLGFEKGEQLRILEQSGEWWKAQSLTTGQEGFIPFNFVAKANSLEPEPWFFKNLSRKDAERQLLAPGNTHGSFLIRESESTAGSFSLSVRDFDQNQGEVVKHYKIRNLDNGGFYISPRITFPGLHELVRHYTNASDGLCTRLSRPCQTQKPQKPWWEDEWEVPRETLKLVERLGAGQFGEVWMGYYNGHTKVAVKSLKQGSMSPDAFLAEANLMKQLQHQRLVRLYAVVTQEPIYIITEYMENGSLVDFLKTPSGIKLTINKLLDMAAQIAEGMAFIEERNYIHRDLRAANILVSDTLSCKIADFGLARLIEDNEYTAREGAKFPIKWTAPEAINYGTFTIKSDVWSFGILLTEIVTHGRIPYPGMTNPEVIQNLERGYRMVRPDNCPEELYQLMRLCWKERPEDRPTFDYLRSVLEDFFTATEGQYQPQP

In the case of `Cc1cc(Oc2ccccc2F)ccc1-n1ncc(C(=O)c2cc3cc(OCC(F)F)c(NS(=O)(=O)CCCF)cc3[nH]2)c1N` [Example 4-24-022, N-[2-[5-amino-1-[4-(2-fluorophenoxy)-2-methylphenyl]pyrazole-4-carbonyl]-5-(2,2-difluoroethoxy)-1H-indol-6-yl]-3-fluoropropane-1-sulfonamide], the IC50 stood at 22 nM at human Lck enzyme (setting [1]), 3.2 nM on human Yes1 enzyme (setting [1]) and 30 nM at human Src enzyme (setting [1]).

For `CCc1cc2cc(C(=O)c3cnn(-c4cnc(Oc5c(F)cccc5F)cc4C)c3N)[nH]c2cc1NS(C)(=O)=O` [Example 5-1-141, N-[2-[5-amino-1-[6-(2,6-difluorophenoxy)-4-methylpyridin-3-yl]pyrazole-4-carbonyl]-5-ethyl-1H-indol-6-yl]methanesulfonamide], the IC50 was found to be 27 nM at human Lck enzyme, 2.4 nM on human Yes1 enzyme and 75 nM at human Src enzyme.

For the compound `Cc1cc(Oc2ccccc2F)ccc1-n1ncc(C(=O)c2cc3cc(F)c(NS(=O)(=O)NC4COC4)cc3[nH]2)c1N` [Example 4-5-005, [5-amino-1-[4-(2-fluorophenoxy)-2-methylphenyl]pyrazol-4-yl]-[5-fluoro-6-(oxetan-3-ylsulfamoylamino)-1H-indol-2-yl]methanone], the IC50 turned out to be 11 nM at human Lck enzyme (setting [1]), 0.51 nM on human Yes1 enzyme (setting [1]) and 29 nM at human Src enzyme (setting [1]).

Regarding `Cc1cc(Oc2ccccc2F)ccc1-n1ncc(C(=O)c2cc3cc(OCC(F)F)c(NC(=O)OCC4c5ccccc5-c5ccccc54)cc3[nH]2)c1N` [Example 5-1-279, 9H-fluoren-9-ylmethyl N-[2-[5-amino-1-[4-(2-fluorophenoxy)-2-methylphenyl]pyrazole-4-carbonyl]-5-(2,2-difluoroethoxy)-1H-indol-6-yl] carbamate], the figures for the IC50 at human Lck enzyme, at human Yes1 enzyme and at human Src enzyme were 170 nM, 14 nM and 910 nM, respectively.

`Cc1cc(Oc2ccccc2F)ccc1-n1ncc(C(=O)c2cc3cc(OCC(F)F)c(NC4CN(S(C)(=O)=O)C4)cc3[nH]2)c1N` [Example 4-23-018, [5-amino-1-[4-(2-fluorophenoxy)-2-methylphenyl]pyrazol-4-yl]-[5-(2,2-difluoroethoxy)-6-[(1-methylsulfonylazetidin-3-yl)amino]-1H-indol-2-yl]methanone]: the IC50 is 6.5 nM at human Lck enzyme (setting [1]), 1.4 nM at human Yes1 enzyme (setting [1]) and 18 nM on human Src enzyme (setting [1]).

On to `CC(=O)N1CCC(c2cc3[nH]c(C(=O)c4cnn(-c5c(C)cc(Oc6ccccc6F)cc5F)c4N)cc3cc2OC(F)F)CC1` [Example 4-17-005, 1-[4-[2-[5-amino-1-[2-fluoro-4-(2-fluorophenoxy)-6-methylphenyl]pyrazole-4-carbonyl]-5-(difluoromethoxy)-1H-indol-6-yl]piperidin-1-yl]ethanone], for which the values for the IC50 at human Lck enzyme (setting [1]), on human Yes1 enzyme (setting [1]) and on human Src enzyme (setting [1]) were 17 nM, 2.9 nM and 36 nM, respectively.

For `Cc1cc(Oc2ccccc2F)ncc1-n1ncc(C(=O)c2cc3cc(NS(C)(=O)=O)c(F)cc3[nH]2)c1N` [Example 4-2-104, N-[2-[5-amino-1-[6-(2-fluorophenoxy)-4-methylpyridin-3-yl]pyrazole-4-carbonyl]-6-fluoro-1H-indol-5-yl]methanesulfonamide], the values for the IC50 at human Lck enzyme (setting [1]), on human Yes1 enzyme (setting [1]) and on human Src enzyme (setting [1]) were 1.9 nM, 0.56 nM and 22 nM, respectively.

Take `Cc1cc(Oc2c(F)cccc2F)ncc1-n1ncc(C(=O)c2cc3cc(OCC(F)F)c(N4CCC(N5CCOCC5)CC4)cc3[nH]2)c1N` [Example 4-25-027, [5-amino-1-[6-(2,6-difluorophenoxy)-4-methylpyridin-3-yl]pyrazol-4-yl]-[5-(2,2-difluoroethoxy)-6-(4-morpholin-4-ylpiperidin-1-yl)-1H-indol-2-yl]methanone]: the IC50 at human Lck enzyme (setting [1]) came out at 2.1 nM; at human Yes1 enzyme (setting [1]), 0.8 nM; at human Src enzyme (setting [1]) it was 23 nM.

Turning to `Cc1cc(-n2ncc(C(=O)c3cc4cc(OC5CCN(C(C)C)CC5)c(Br)cc4[nH]3)c2N)ccc1Oc1ccccc1F` [Example 5-1-148, [5-amino-1-[4-(2-fluorophenoxy)-3-methylphenyl]pyrazol-4-yl]-[6-bromo-5-(1-propan-2-ylpiperidin-4-yl)oxy-1H-indol-2-yl] methanone], the values for the IC50 at human Lck enzyme, at human Yes1 enzyme and on human Src enzyme were 47 nM, 0.57 nM and 180 nM, respectively.

With `Cc1cc(Oc2ccccc2F)cc(F)c1-n1ncc(C(=O)c2cc3cc(OCC(F)F)c(N4CCCS4(=O)=O)cc3[nH]2)c1N` [Example 4-25-010, [5-amino-1-[2-fluoro-4-(2-fluorophenoxy)-6-methylphenyl]pyrazol-4-yl]-[5-(2,2-difluoroethoxy)-6-(1,1-dioxo-1,2-thiazolidin-2-yl)-1H-indol-2-yl]methanone], the IC50 at human Lck enzyme (setting [1]) came to 7.4 nM; at human Yes1 enzyme (setting [1]), 1.7 nM; at human Src enzyme (setting [1]), 16 nM.

As for `Cc1cc(Oc2ccccc2F)ccc1-n1ncc(C(=O)c2cc3cc(OCCN4CC5CC(C4)N5S(C)(=O)=O)c(NS(C)(=O)=O)cc3[nH]2)c1N` [Example 4-24-037], the IC50 came to 3.8 nM on human Lck enzyme (setting [1]), 0.67 nM on human Yes1 enzyme (setting [1]) and 24 nM at human Src enzyme (setting [1]).

Take `Cc1cc2cc(C(=O)c3cnn(-c4ccc(Oc5ccccc5F)cc4C)c3N)[nH]c2cc1N1C(=O)CNC1=O` [Example 5-1-434, 3-[2-[5-amino-1-[4-(2-fluorophenoxy)-2-methylphenyl]pyrazole-4-carbonyl]-5-methyl-1H-indol-6-yl]imidazolidine-2,4-dione]: the values for the IC50 at human Lck enzyme (setting [1]), at human Yes1 enzyme (setting [1]) and on human Src enzyme (setting [1]) were 4.1 nM, 0.44 nM and 15 nM, respectively.

Take `Cc1cc(Oc2ccccc2)cc(F)c1-n1ncc(C(=O)c2cc3cc(NS(C)(=O)=O)c(Cl)cc3[nH]2)c1N` [Example 4-2-095, N-[2-[5-amino-1-(2-fluoro-6-methyl-4-phenoxyphenyl)pyrazole-4-carbonyl]-6-chloro-1H-indol-5-yl]methanesulfonamide]: the IC50 stood at 5.3 nM on human Lck enzyme (setting [1]), 0.85 nM at human Yes1 enzyme (setting [1]) and 14 nM at human Src enzyme (setting [1]).

Take `Cc1cc2cc(C(=O)c3cnn(-c4ccc(Oc5ccccc5F)cc4C)c3N)[nH]c2cc1N1C(=O)NC2(CCN(C3COC3)CC2)C1=O` [Example 5-1-391, 3-(2-(5-amino-1-(4-(2-fluorophenoxy)-2-methylphenyl)-1H-pyrazole-4-carbonyl)-5-methyl-1H-indol-6-yl)-8-(oxetan-3-yl)-1,3,8-triazaspiro[4.5]decane-2,4-dione]: the IC50 at human Lck enzyme stood at 5.5 nM; on human Yes1 enzyme it was 1.3 nM; on human Src enzyme it was 11 nM.

`Cc1cc(Oc2ccccc2F)ncc1-n1ncc(C(=O)c2cc3cc(N4CCOCC4)c(NS(=O)(=O)N4CCOCC4)cc3[nH]2)c1N` [Example 4-22-004, N-[2-[5-amino-1-[6-(2-fluorophenoxy)-4-methylpyridin-3-yl]pyrazole-4-carbonyl]-5-morpholin-4-yl-1H-indol-6-yl]morpholine-4-sulfonamide]: the IC50 at human Lck enzyme (setting [1]) is 78 nM; on human Yes1 enzyme (setting [1]), 1.2 nM; at human Src enzyme (setting [1]) it was 360 nM.

Regarding `Cc1cc(Oc2cccc(F)c2F)ccc1-n1ncc(C(=O)c2cc3cc(F)c(NS(=O)(=O)C4CC4)cc3[nH]2)c1N` [Example 4-2-041, N-[2-[5-amino-1-[4-(2,3-difluorophenoxy)-2-methylphenyl]pyrazole-4-carbonyl]-5-fluoro-1H-indol-6-yl]cyclopropanesulfonamide], the IC50 was 38 nM at human Lck enzyme (setting [1]), 0.79 nM at human Yes1 enzyme (setting [1]) and 84 nM on human Src enzyme (setting [1]).
